We go through 8 compounds from patent US20210255193A1, “LYSINE REACTIVE PROBES AND USES THEREOF” (The Scripps Research Institute, priority 2017, published 2021).

Common to all, as to assay: competitive isoTOP-ABPP
Holding throughout (assay type): binding
What all share (details): 50 uM, in vitro, sol, 231

The target of experiment [1] is T1, G6PD Glucose-6-phosphate 1-dehydrogenase (Homo sapiens, UniProt P11413).
T1 construct: isoTOP-ABPP experiments performed in cell lysates (in vitro); endogenous in cells; host or cells: MDA-MB-231 soluble lysate
T1 sequence (P11413 whole entry): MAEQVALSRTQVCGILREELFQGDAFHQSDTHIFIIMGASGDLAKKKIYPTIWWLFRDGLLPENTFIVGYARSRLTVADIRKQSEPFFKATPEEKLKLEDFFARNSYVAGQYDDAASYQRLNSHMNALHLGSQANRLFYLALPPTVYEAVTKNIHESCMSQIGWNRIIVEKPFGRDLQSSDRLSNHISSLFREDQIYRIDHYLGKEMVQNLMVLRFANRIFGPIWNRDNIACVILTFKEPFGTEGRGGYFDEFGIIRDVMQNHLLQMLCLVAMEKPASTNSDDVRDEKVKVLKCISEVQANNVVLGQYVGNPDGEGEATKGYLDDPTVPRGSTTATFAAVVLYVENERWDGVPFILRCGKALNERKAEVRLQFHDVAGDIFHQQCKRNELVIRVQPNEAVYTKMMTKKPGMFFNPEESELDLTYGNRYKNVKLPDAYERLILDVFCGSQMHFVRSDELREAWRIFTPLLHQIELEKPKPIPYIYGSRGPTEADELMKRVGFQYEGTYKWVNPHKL
Put shortly: (§1)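 Cell lysate (0.5 ml) was pre-treated with fragment, 50 μM for activated esters or 100 μM for guanidinylating agents, versus DMSO, then labeled 1 h at ambient temperature with 0.1 mM STP-alkyne. Light/heavy TEV tags attached by CuAAC; R = DMSO/compound MS1 peak-area ratio, median per lysine.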

The target in experiment [2] is T2, NPEPPS Puromycin-sensitive aminopeptidase (Homo sapiens, UniProt P55786).
T2 construct: isoTOP-ABPP experiments performed in cell lysates (in vitro); endogenous in cells; host or cells: soluble proteome of human cancer cell lines (MDA-MB-231, Ramos, Jurkat)
T2 sequence (P55786 whole entry): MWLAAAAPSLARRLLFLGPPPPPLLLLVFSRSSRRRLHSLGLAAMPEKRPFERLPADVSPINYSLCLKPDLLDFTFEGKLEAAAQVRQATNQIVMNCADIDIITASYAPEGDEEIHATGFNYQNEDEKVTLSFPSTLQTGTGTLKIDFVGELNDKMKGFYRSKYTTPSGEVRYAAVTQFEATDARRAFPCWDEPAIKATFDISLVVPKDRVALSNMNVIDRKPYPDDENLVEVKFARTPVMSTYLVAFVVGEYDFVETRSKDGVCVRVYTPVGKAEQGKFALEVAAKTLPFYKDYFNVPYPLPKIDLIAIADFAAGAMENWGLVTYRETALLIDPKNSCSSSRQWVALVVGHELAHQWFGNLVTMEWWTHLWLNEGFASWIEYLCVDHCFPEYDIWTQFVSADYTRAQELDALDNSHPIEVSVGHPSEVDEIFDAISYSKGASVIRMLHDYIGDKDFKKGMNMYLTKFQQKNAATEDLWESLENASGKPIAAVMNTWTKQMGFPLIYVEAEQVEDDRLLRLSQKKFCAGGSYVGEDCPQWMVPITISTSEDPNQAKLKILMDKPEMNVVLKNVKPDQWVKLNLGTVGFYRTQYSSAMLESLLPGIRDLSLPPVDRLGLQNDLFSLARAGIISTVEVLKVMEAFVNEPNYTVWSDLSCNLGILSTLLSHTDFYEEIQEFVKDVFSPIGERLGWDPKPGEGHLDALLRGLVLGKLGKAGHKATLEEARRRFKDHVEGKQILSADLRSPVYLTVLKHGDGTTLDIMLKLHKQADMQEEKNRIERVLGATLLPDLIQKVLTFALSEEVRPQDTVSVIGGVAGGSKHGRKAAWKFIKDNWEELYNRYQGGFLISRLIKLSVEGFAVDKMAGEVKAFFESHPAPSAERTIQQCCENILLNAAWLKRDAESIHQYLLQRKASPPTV
The procedure, abridged: as §1

The next experiment concerns the target T3, EEF2 Elongation factor 2 (Homo sapiens, UniProt P13639).
T3 construct: isoTOP-ABPP experiments performed in cell lysates (in vitro); endogenous in cells; host or cells: soluble proteome of human cancer cell lines (MDA-MB-231; Ramos and Jurkat also prepared)
The procedure, abridged:
as §1

Experiment [3] deals with T4, AP1G1 AP-1 complex subunit gamma-1 (Homo sapiens, UniProt O43747).
T4 construct: isoTOP-ABPP experiments performed in cell lysates (in vitro); endogenous in cells; host or cells: MDA-MB-231 soluble lysate
T4 sequence (O43747 1-822): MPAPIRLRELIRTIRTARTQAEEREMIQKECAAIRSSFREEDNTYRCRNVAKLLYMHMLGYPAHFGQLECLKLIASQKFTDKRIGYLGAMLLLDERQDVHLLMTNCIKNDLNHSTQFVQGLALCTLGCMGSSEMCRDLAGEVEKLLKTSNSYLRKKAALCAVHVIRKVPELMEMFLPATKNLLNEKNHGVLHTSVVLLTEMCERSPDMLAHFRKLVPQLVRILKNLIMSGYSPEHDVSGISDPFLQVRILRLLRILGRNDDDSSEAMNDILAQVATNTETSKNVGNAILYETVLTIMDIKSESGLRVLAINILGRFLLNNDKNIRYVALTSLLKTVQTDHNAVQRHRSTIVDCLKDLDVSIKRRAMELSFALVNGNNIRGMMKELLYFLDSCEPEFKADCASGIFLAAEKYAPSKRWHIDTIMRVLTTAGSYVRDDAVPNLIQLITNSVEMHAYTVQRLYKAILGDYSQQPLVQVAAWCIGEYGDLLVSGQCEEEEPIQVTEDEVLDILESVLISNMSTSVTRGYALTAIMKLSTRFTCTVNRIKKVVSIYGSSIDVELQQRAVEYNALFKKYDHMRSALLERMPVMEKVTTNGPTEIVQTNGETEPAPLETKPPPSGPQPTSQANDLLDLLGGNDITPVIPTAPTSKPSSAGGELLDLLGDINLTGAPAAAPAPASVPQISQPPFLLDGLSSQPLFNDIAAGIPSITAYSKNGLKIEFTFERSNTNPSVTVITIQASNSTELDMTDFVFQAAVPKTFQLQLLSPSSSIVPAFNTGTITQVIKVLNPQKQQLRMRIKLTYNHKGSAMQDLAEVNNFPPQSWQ
Put shortly: as §1

Molecules are shown by their SMILES.

Consider `O=C(Oc1ccc([N+](=O)[O-])cc1[N+](=O)[O-])c1ccc2ccccc2n1` [fragment 35, 2,4-Dinitrophenyl quinoline-2-carboxylate], for which the “isoTOP-ABPP ratio (R) at liganded lysine P11413_K171” value in experiment [1] stood at 1.7. Also, the “isoTOP-ABPP ratio (R) at liganded lysine P55786_K712” value in experiment [2] was 1.3. On EEF2 Elongation factor 2, the “isoTOP-ABPP ratio (R) at liganded lysine P13639_K235” value is 1.1 and the “isoTOP-ABPP ratio (R) at liganded lysine P13639_K318” value is 1.1. Besides, the “isoTOP-ABPP ratio (R) at liganded lysine O43747_K214” value in experiment [3] came out at 1.0.
On to `O=C(CCc1coc2cc(F)ccc2c1=O)Oc1ccc([N+](=O)[O-])cc1[N+](=O)[O-]` [fragment 36, 2,4-Dinitrophenyl 3-(7-fluoro-4-oxo-4H-chromen-3-yl)propanoate], for which the “isoTOP-ABPP ratio (R) at liganded lysine P11413_K171” value in experiment [1] worked out at 1.0. Moreover, in experiment [2], the “isoTOP-ABPP ratio (R) at liganded lysine P55786_K712” value was 2.7. At EEF2 Elongation factor 2, the “isoTOP-ABPP ratio (R) at liganded lysine P13639_K235” value is reported as 1.0 and the “isoTOP-ABPP ratio (R) at liganded lysine P13639_K318” value is 1.0. For the same compound, the “isoTOP-ABPP ratio (R) at liganded lysine O43747_K214” value in experiment [3] is recorded as 1.1.
In the case of `O=C(Oc1ccc([N+](=O)[O-])cc1[N+](=O)[O-])c1ccc(-c2ccccc2)cc1` [fragment 37, 2,4-Dinitrophenyl [1,1′-biphenyl]-4-carboxylate], the “isoTOP-ABPP ratio (R) at liganded lysine P11413_K171” value in experiment [1] came out at 0.9. In experiment [2], the “isoTOP-ABPP ratio (R) at liganded lysine P55786_K712” value turned out to be 0.9. On EEF2 Elongation factor 2, the “isoTOP-ABPP ratio (R) at liganded lysine P13639_K235” value is 1.0 and the “isoTOP-ABPP ratio (R) at liganded lysine P13639_K318” value amounted to 1.0. Further, the “isoTOP-ABPP ratio (R) at liganded lysine O43747_K214” value in experiment [3] was 0.9.
For `O=C(CC12CC3CC(CC(C3)C1)C2)Oc1ccc([N+](=O)[O-])cc1[N+](=O)[O-]` [fragment 38, 2,4-Dinitrophenyl 2-(adamantan-1-yl)acetate], the “isoTOP-ABPP ratio (R) at liganded lysine P11413_K171” value in experiment [1] is listed as 0.9. Moreover, the “isoTOP-ABPP ratio (R) at liganded lysine P55786_K712” value in experiment [2] stood at 1.0. On EEF2 Elongation factor 2, the “isoTOP-ABPP ratio (R) at liganded lysine P13639_K235” value came to 0.9 and the “isoTOP-ABPP ratio (R) at liganded lysine P13639_K318” value stood at 0.9. Also, in experiment [3], the “isoTOP-ABPP ratio (R) at liganded lysine O43747_K214” value was determined as 0.9.
For `O=C(Oc1ccc([N+](=O)[O-])cc1[N+](=O)[O-])c1ccc(Oc2ccccc2)cc1` [fragment 39, 2,4-Dinitrophenyl 4-phenoxybenzoate], in experiment [1], the “isoTOP-ABPP ratio (R) at liganded lysine P11413_K171” value was 1.1. Further, in experiment [2], the “isoTOP-ABPP ratio (R) at liganded lysine P55786_K712” value was found to be 0.9. Also, at EEF2 Elongation factor 2, the “isoTOP-ABPP ratio (R) at liganded lysine P13639_K235” value is 0.9 and the “isoTOP-ABPP ratio (R) at liganded lysine P13639_K318” value was 0.9. Moreover, the “isoTOP-ABPP ratio (R) at liganded lysine O43747_K214” value in experiment [3] was 0.8.
With `O=C(Oc1ccc([N+](=O)[O-])cc1[N+](=O)[O-])c1ccccc1Nc1cccc(C(F)(F)F)c1` [fragment 40, 2,4-Dinitrophenyl 2-((3-(trifluoromethyl)phenyl)amino)benzoate], the “isoTOP-ABPP ratio (R) at liganded lysine P11413_K171” value in experiment [1] turned out to be 1.9. Also, the “isoTOP-ABPP ratio (R) at liganded lysine P55786_K712” value in experiment [2] is 1.0. Further, at EEF2 Elongation factor 2, the “isoTOP-ABPP ratio (R) at liganded lysine P13639_K235” value worked out at 0.9 and the “isoTOP-ABPP ratio (R) at liganded lysine P13639_K318” value came out at 0.9. Further, the “isoTOP-ABPP ratio (R) at liganded lysine O43747_K214” value in experiment [3] turned out to be 0.9.
Regarding `CC(C)(C)OC(=O)NCCCC(=O)Oc1ccc([N+](=O)[O-])cc1[N+](=O)[O-]` [fragment 41, 2,4-Dinitrophenyl 4-((tert-butoxycarbonyl)amino)butanoate], the “isoTOP-ABPP ratio (R) at liganded lysine P11413_K171” value in experiment [1] is on record as 1.0. Besides, the “isoTOP-ABPP ratio (R) at liganded lysine P55786_K712” value in experiment [2] turned out to be 1.5. In addition, on EEF2 Elongation factor 2, the “isoTOP-ABPP ratio (R) at liganded lysine P13639_K235” value was found to be 1.0 and the “isoTOP-ABPP ratio (R) at liganded lysine P13639_K318” value stood at 1.1. For the same compound, the “isoTOP-ABPP ratio (R) at liganded lysine O43747_K214” value in experiment [3] came out at 1.0.
As for `O=C(Oc1ccc([N+](=O)[O-])cc1[N+](=O)[O-])C(c1ccccc1)(c1ccccc1)c1ccccc1` [fragment 42, 2,4-Dinitrophenyl 2,2,2-triphenylacetate], in experiment [1], the “isoTOP-ABPP ratio (R) at liganded lysine P11413_K171” value is 0.9. For the same compound, the “isoTOP-ABPP ratio (R) at liganded lysine P55786_K712” value in experiment [2] was found to be 0.9. In addition, at EEF2 Elongation factor 2, the “isoTOP-ABPP ratio (R) at liganded lysine P13639_K235” value is reported as 1.0 and the “isoTOP-ABPP ratio (R) at liganded lysine P13639_K318” value is on record as 1.0. In addition, the “isoTOP-ABPP ratio (R) at liganded lysine O43747_K214” value in experiment [3] stood at 0.8.
